Data from patent US10676452B2, “Compound for the prophylaxis or treatment of organ damage” (Sulfateq B.V., priority 2015, dated 2020).
“Also recorded” adds a separate entry of the source.

What was measured:
[1] = Solubility of SUL121 in 50% DMSO in saline solution; format: physicochemical; settings: aqueous with cosolvent or surfactant or cyclodextrin, kinetic from dmso stock, read-out: solubility in 50% DMSO (completely soluble up to)
Procedure: (§1) Cell culture grade DMSO was obtained from Sigma-Aldrich (Zwijndrecht, the Netherlands). 0.9% sterile saline solutions were from Baxter (Utrecht, the Netherlands). (6-hydroxy-2,5,7,8-tetramethylchroman-2-yl)(piperazin-1-yl)methanone (SUL121) was supplied by Sulfateq BV, Groningen, the Netherlands supplied in a formulation of 500 mM in 100% DMSO corresponding to 177 g/l. Osmotic minipumps (Alzet, USA) are resistant to DMSO concentrations≤50%. Therefore, the solubility of SUL121 was tested in 50% DMSO in saline solution. SUL121 was completely soluble in 50% DMSO up to a concentration of 12.6 g/1. Alzet model 2004 pumps were loaded with 200 μl of 12.6 g/1 SUL121 solution or with 200 ul 50% DMSO solution (vehicle). According to pump specifications 6 μl of SUL121 was administered per day, resulting in a daily dose of 2.2 mg/kg/day for a 35 gram mouse.

db/db mice [2] = experiment: Metabolic data (body weight, water intake, urine output, non-fasting blood glucose) in db/db mouse Type 2 diabetes model; format: in vivo
Text: Given its effectiveness in the model of renal ischemia and reperfusion, it was hypothesized that compound SUL 121 will also protect the kidney in an experimental model of obesity induced Type 2 diabetes (T2DM). Therefore, the effects of SUL121 on the development of albuminuria and renal damage in the mouse Type 2 diabetes model was studied. For the study, the db/db mouse model was employed. […] Diabetes starts at the age of 6-8 weeks and adequate levels of kidney damage and albuminuria can be observed at the age of 18 weeks.
To study the effects of SUL121 on the development of diabetes, treatment with SUL121 started from the age of 10 weeks until the age of 18 weeks. In addition, to study the effects of SUL 121 on healthy animals, control mice were treated similarly. A non-treated control group was included in the study, to serve as healthy untreated control. Drug and vehicle were administered by implantation of osmotic minipumps at the age of 10 and 14 weeks.
as §1
(§2) Male db/db mice (n=16) and lean heterozygous control animals (n=16) were purchased from Harlan UK (strain JAX000642). All mice were housed individually. Water and food were given ad-libitum. Four groups of mice were investigated: • 1) db/db+vehicle (diabetic control) • 2) db/db+Sul121 (treated diabetic group) • 3) wt+vehicle (non-diabetic control) • 4) wt+Sul121 (to study effect of drug only) Drug and vehicle were administered by implantation of osmotic minipumps at the age of 10 (t=0) and 14 weeks (t=4). Metabolic cages and blood pressure measurements were performed every two weeks. Blood samples could not be obtained by cheek puncture, therefore blood was collected from the retro orbital plexus at the age of 10 (t=0) and 12 weeks (t=2). At the age of 18 weeks (t=8) all animals were terminated and blood was collected by cardiac puncture. Urinary Measurements
(§3) Urinary glucose concentrations were measured by the glucose oxidase method with a specific electrode from 24-h urine collections after the samples were stored in −20° C. The urinary creatinine concentration was measured by standard laboratory methods (Jaffe method without deproteinization, DiaSys Diagnostic Systems, Holzheim, Germany). The median values of the 24-h urine collections and of the albumin-to-creatinine ratio were calculated. In addition, mouse albumin levels in urine were determined manually using a mouse albumin Elisa kit (Abcam, Cambridge, UK). Urinary hydrogen peroxide levels were determined using an Amplex Red H2O2 assay kit (Life technologies, Leusden, the Netherlands).

db/db mice [3] = experiment: Arterial blood pressure by tail-cuff method; format: in vivo, mouse
Procedure: as §2
Arterial blood pressure was measured in anaesthetized mice (2% isoflurane) by means of the tail-cuff method (PS-200A; Riken-Kaihatsu; Tokyo, Japan). For each animal, blood pressure values represent the mean of three to ten recordings obtained in a single session.

db/db mice [4] = experiment: Organ (kidney) weights at termination; format: in vivo, mouse; settings: diabetic mice, after 8 weeks of treatment
Procedure: as §2
After 8 weeks of treatment, mice were terminated and organ weights were measured (FIG. 2). […] SUL 121 treatment normalized kidney weights to non-diabetic control values.

db/db mice [5] = experiment: Urinary albumin excretion and albumin/creatinine ratio; format: in vivo, mouse
Procedure: as §2, §3
To test whether SUL 121 treatment could reduce renal damage, albumin leakage into the urine was measured at all time points for diabetic animals. Total albumin excretion per day (AER) was calculated by multiplying urinary albumin concentration with daily urinary output (FIG. 3A).

db/db mice [6] = experiment: Renal histology: PAS staining, focal glomerulosclerosis (FGS) score; format: in vivo, mouse; settings: diabetic mice
Text: Four-micrometer-thick formalin fixed sections were deparaffinized and stained for periodic acid-Schiff (PAS) for quantification of focal glomerulosclerosis (FGS) and tubular injury. FGS was semiquantitatively scored in a blinded fashion by determining the level of mesangial expansion and focal adhesion in each quadrant in a glomerulus and expressed on a scale from 0 to 4. If 25% of the glomerulus was affected, it was scored as 1, 50% as 2, 75% as 3, and 100% as 4. In total, 50 glomeruli per kidney were analyzed, and the total FGS score was calculated by multiplying the score by the percentage of glomeruli with the same FGS score. Thus the total FGS score ranged from 0 to 200.

mouse aortic rings = experiment: Organ bath experiments with the isolated aorta of treated mice (ACh relaxation after PE precontraction); format: in vivo; settings: for max. relaxation to ACh (remaining % of PE preconstriction): aortic rings
Procedure: Freshly isolated thoracic aortic rings (1.5-2 mm in length) were mounted on 200-μm stainless wires in individual myograph baths (Danish Myo Technology, Aarhus, Denmark). Briefly, baths containing 6 ml Krebs solution were warmed to 37° C. and preequilibrated and continuously aerated with 95% O2-5% CO2 to maintain pH at 7.4. The length of the aortic strips was assessed by microscopy. Aortic rings were equilibrated for 40 min until they were at a steady baseline. Rings were then primed and checked for viability by two consecutive stimulations with KCl (60 mM) followed by washings and renewed stabilization to obtain reproducible contractile responses.
Contraction responses were measured as cumulative concentration-response curves to phenylephrine (PE; 10 nM-100 μM) followed by a single concentration of KCl (90 mM). Endothelium-dependent relaxation was assessed by obtaining concentration-response curves to ACh (10 nM-300 μM) in rings precontracted with PE (1 μM) followed by stimulation with a high concentration of the NO donor sodium nitroprusside (SNP; 0.1 mM) to assess maximal endothelium-independent dilation.
To study the role of the endothelium in vasoconstrictor effects, rings were denuded by removing the endothelial cell layer by rubbing the luminal side of the vessel with a moistened wire. To examine the contribution of different EDRFs in modulating vasoconstrictor responses and mediating endothelium-dependent relaxation, inhibitors of PG and NO synthesis were used. To this end, PG components were assessed by preincubating rings (20 min.) with the nonspecific cyclooxygenase inhibitor indomethacin (10 μM). The NO component was examined by subsequent incubation with both NO synthesis inhibitor NG-monomethyl-L-arginine (L-NMMA; 1 μM) and indomethacin. The remaining ACh-mediated relaxation was attributed to an unidentified EDHF.
Contractions to KCl and PE are given in milliNewtons. Relaxation responses to ACh and SNP are expressed as percentages of the preconstriction with PE. In addition to that, the area under each individual curve (AUC; in arbitrary units) was determined for ACh-induced relaxation (SigmaPlot version 10.0, Systat Software, San Jose, Calif.). The AUC was used to present total endothelium-dependent relaxation and for the subsequent analysis of differences in ACh-mediated relaxation with and without inhibitors present to estimate the contribution of the different EDRFs, i.e., PGs for the part sensitive to cycloxygenase inhibition with indomethacin, NO for the part sensitive to NOS inhibition with L-NMMA, and EDHF by means of exclusion of PG and NO (34).

db/db mice [7] = experiment: Plasma hydrogen peroxide (ROS production in diabetes); format: in vivo, mouse; settings: diabetic mice
Procedure: as §3
Enhanced reactive oxygen species (ROS) production is a well-established phenomenon in diabetes. To study the effects of SUL121 treatment on ROS production, hydrogen peroxide, a stable metabolite of ROS, was measured in plasma (FIG. 6). SUL 121 treatment normalized H2O2 levels in plasma.

[8] = test system: mouse renal mesangial cells; experiment: In-vitro model of diabetes: intracellular ROS under high glucose and insulin; format: cell-based
Text: To further explore the mechanisms through which SUL 121 mediates renal protection in diabetes, an in-vitro model of diabetes was employed. For this, mouse renal mesangial cells were exposed to conditions simulating type 2 diabetes (high glucose and insulin). Exposure to high glucose/insulin increased intracellular ROS levels by approximately 70% (FIG. 7).

rat kidney = settings: blood flow stopped and restored; cited from earlier work

Question: What does the source list for `Cc1c(C)c2c(c(C)c1O)CCC(C)(C(=O)N1CCNCC1)O2` (stereo not shown) [SUL121, (6-hydroxy-2,5,7,8-tetramethylchroman-2-yl)(piperazin-1-yl)methanone]?
Answer: solubility [1]: ≥ 12.6 mg/mL; effect on urine output and water intake (db/db mice [2]; all time points other than week 8): did not significantly affect; effect on blood glucose levels (db/db mice [2]; diabetic db/db mice): did not affect; non-fasting blood glucose level (db/db mice [2]; diabetic db/db mice, end of the experiment): 35.3 ± 1.1 mM; non-fasting blood glucose level (db/db mice [2]; diabetic db/db mice, start of the experiment): 27.2 ± 1.3 mM; urine output (db/db mice [2]; diabetic db/db mice, week 8): 11.2 ± 3.8 g; water intake (db/db mice [2]; diabetic db/db mice, week 8): 10.9 ± 3.9 g; effect on blood pressure (db/db mice [3]; diabetic mice): did not affect; effect on blood pressure (db/db mice [3]; non-diabetic wild type mice, week 2): lowered; effect on blood pressure (db/db mice [3]; week 6): did not affect; effect on kidney weights (kidney hypertrophy) (db/db mice [4]): normalized; effect on total albumin excretion per day (AER) (db/db mice [5]; diabetic animals, weeks 6 and 8): prevented the progression; albumin/creatinine ratio (ACR) (db/db mice [5]; diabetic mice, week 6): 534 ± 79 µg/mg; albumin/creatinine ratio (ACR) (db/db mice [5]; diabetic mice, week 8 (not statistically significant vs diabetic control)): 866 ± 91 µg/mg; effect on AER (db/db mice [5]; non-diabetic animals): did not affect; total albumin excretion per day (AER) (db/db mice [5]; non-diabetic animals, week 8): 31.3 ± 4.6 µg/day; albumin/creatinine ratio (ACR) (db/db mice [5]; wild type animals, week 8): 55 ± 6 µg/mg; effect on focal glomerular sclerosis (FGS) scores (db/db mice [6]): significantly reduced; effect on focal glomerular sclerosis (FGS) scores (db/db mice [6]; listed as SUL 121): significantly lowered; effect on NO and prostaglandin components of relaxation (mouse aortic rings; diabetic animals): non-significant (p=0.06) increase; effect on EDHF component of total relaxation (mouse aortic rings; diabetic animals, with L-NMMA and indomethacin): significantly increasing; effect on endothelium mediated relaxation (mouse aortic rings; diabetic mice): restores; max. relaxation to ACh (remaining % of PE preconstriction) (mouse aortic rings; treated diabetic group): 11.3±2.3%; max. relaxation to ACh (remaining % of PE preconstriction) (mouse aortic rings; treated non-diabetic controls): 9.2±1.6%; effect on plasma H2O2 levels (db/db mice [7]): normalized; effect on high glucose/insulin induced increase of intracellular ROS ([8]; cells pretreated, high glucose and insulin): substantially inhibited; also recorded: normalized; effect on intracellular ROS production, compound alone ([8]; without high glucose/insulin): did not affect; reduction of ischemia and reperfusion damage (rat kidney): very effective
